This note sets out measurements from US20030114666A1, “Antibacterial agents” (priority 2001, published 2003).

SMILES strings stand for the structures. Converted amounts (≈) assume the structure as drawn. Structures can show the parent of a compound that is named as a salt. Where two headings read alike, the source gives them in different places.

In one data set the test system is E. coli B90. Put plainly: Test A antibacterial assay, standard microtitration (MIC). To be noted: Escherichia coli. It is filed as cell-based. The method, then:
(§1) Test A-Antibacterial Assay
(§2) The compounds of the present invention were tested against an assortment of Gram-negative and Gram-positive organisms using standard microtitration techniques (Cohen, et al., Antimicrob. Agents Chemother., 1985;28:766; Heifetz, et al., Antimicrob. Agents Chemother:, 1974;6:124). […]

In a further data set the test system is E. coli MC 4100. The description is as above. It is filed as cell-based. As to conditions: Escherichia coli. The method, then: as §1, §2
The next data set has as its system E. coli Tol C. The data set is described as above. To be noted: Escherichia coli, read-out: Minimum Inhibitory Concentrations E. coli Tol C. It is filed as cell-based. The protocol:
as §1, §2

The next data set concerns E. faecalis RB1. The description is as above. As to conditions: Enterococcus faecalis. It is filed as cell-based. The protocol: as §1, §2
For another data set, the system named is S. pyogenes C203. The data set is described as above. It is filed as cell-based. To be noted: Streptococcus pyogenes. The method, then: as §1, §2
Another data set addresses E. coli gyrase (Escherichia coli, UniProt P0AES4+P0AES6). Put plainly: biochemical. To be noted: supercoiling of relaxed pBR322, 30 minutes at 37° C.
The next data set concerns S. aureus 29213. In words: Test A antibacterial assay, standard microtitration (MIC). As to conditions: Staphylococcus aureus, 29213, read-out: Minimum Inhibitory Concentrations S. aureus 29213. It is filed as cell-based. The method, then: as §1, §2
For another data set, the system named is S. pyogenes. In words: Test C in vivo activity, median protective dose in mice given lethal systemic infections. As to conditions: PO, lethal systemic infection with S. pyogenes.
Another data set relates to N. gonorrhoeae 2637. In words: Test D cross resistance antibacterial assay (MIC). It is filed as cell-based, Neisseria gonorrhoeae. As to conditions: Neisseria gonorrhoeae, 2637; parent strain, derivative of MS11; read-out: Minimum Inhibitory Concentrations N. g. 2637. The method, then:
(§3) Test D-Cross Resistance Antibacterial Assay
(§4) The compounds of the present invention were tested against an assortment of ciprofloxacin resistant E. coli and S. aureus organisms described below using standard microtitration techniques (Cohen, et al., Antimicrob. Agents Chemother., 1985;28:766; Heifetz, et al., Antimicrob. Agents Chemother., 1974;6:124). […].
N. gonorrhoeae 2637 (N.g. 2637) is a derivative of Neisseria gonorrhoeae MS11 containing a TAC-LAC recA to allow for control of homologous recombination [Tonjum T. et al. Molecular Microbiology 1995, 16, 451-64].

A further data set has as its system N. gonorrhoeae 2709. Put plainly: Test D cross resistance antibacterial assay (MIC). It is filed as cell-based, Neisseria gonorrhoeae. The method, then: as §3, §4
N. gonorrhoeae 2709 (N.g. 2709): Isogenic to N. gonorrhoeae 2637 contains gyrA quinolone-resistant determining region (QRDR) mutations (S91F D95G).

For a further data set, the system named is N. gonorrhoeae 2693. In words: Test D cross resistance antibacterial assay (MIC). It is filed as cell-based, Neisseria gonorrhoeae. To be noted: relative to MIC against N. g. 2637. The protocol: as §3, §4
N. gonorrhoeae 2693 (N.g. 2693): Isogenic to N. gonorrhoeae 2709 containing parC QRDR mutations [P88S and E91K].

In the next data set the test system is S. aureus UC-76. In words: Test D cross resistance antibacterial assay (MIC). It is filed as cell-based. To be noted: Staphylococcus aureus, UC76; wild type sensitive laboratory strain; read-out: Minimum Inhibitory Concentrations S. aureus UC-76. The protocol:
as §3, §4
S. aureus UC-76: Typical sensitive laboratory strain (Wild type).

A further data set has as its system S. aureus 2552. Put plainly: Test D cross resistance antibacterial assay (MIC). It is filed as cell-based. The method, then: as §3, §4
In the next data set the test system is S. aureus 2554. In words: Test D cross resistance antibacterial assay (MIC). It is filed as cell-based. As to conditions: relative to MIC against S. aureus UC-76. The protocol:
as §3, §4
S. aureus 2554: Isogenic to S. aureus 2552, with point mutation at position 80 of grlA subunit.

The test system of another data set is S. aureus 2558. Put plainly: Test D cross resistance antibacterial assay (MIC). It is filed as cell-based. As to conditions: relative to MIC against S. aureus UC-76. The method, then:
as §3, §4
S. aureus 2558: Isogenic to S. aureus 2554, with point mutation at position 84 of gyrA subunit.

Sequence of E. coli gyrase (P0AES4 whole entry, one chain of several): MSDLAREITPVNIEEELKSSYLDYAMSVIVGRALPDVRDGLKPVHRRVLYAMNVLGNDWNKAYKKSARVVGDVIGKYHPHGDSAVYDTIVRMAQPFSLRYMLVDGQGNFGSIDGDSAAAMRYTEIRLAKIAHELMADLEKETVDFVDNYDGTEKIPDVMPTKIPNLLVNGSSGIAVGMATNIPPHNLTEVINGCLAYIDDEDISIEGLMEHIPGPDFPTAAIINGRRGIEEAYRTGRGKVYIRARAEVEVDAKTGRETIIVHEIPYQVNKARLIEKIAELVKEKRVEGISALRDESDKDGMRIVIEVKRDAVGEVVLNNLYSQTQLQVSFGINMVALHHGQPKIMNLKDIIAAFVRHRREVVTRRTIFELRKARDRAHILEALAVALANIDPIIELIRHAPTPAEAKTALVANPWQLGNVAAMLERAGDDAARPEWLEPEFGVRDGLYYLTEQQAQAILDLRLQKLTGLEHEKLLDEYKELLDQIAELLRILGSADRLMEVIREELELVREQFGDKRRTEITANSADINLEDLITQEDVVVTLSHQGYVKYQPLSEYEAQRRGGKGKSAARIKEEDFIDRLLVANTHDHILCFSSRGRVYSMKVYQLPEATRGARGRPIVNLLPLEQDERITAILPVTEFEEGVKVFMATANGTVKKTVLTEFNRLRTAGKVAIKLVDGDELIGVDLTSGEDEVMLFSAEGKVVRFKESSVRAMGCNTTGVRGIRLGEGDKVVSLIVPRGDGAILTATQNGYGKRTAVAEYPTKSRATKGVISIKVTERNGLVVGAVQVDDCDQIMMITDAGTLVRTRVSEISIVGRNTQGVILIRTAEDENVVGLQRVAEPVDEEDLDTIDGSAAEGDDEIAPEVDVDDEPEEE

As usually defined, the IC50 is the concentration at which inhibition is half-maximal. Higher therefore signals lower potency. Broadly, the melting point is the temperature, or range, at which the solid turns liquid. `CN[C@@H](C)[C@@H]1CCN(c2c(F)cc3c(=O)[nH]c(=O)n(C4CC4)c3c2OC)C1` [Example 3, 1-Cyclopropyl-6-fluoro-8-methoxy-7-[(R)-3-((S)-1-methylaminoethyl)pyrrolidin-1-yl]-1H-quinazolinedione] yielded a melting point of 162 to 164 °C. The MIC in the data set on E. coli B90 (Gram negative, E. coli B90, read-out: Minimum Inhibitory Concentrations E. coli B90) amounted to 2 µg/mL (≈ 5.31 µM). In the data set on E. coli MC 4100 (MC4100, Gram negative, E. coli MC 4100, read-out: Minimum Inhibitory Concentrations E. coli MC 4100), the MIC amounted to 32 µg/mL (≈ 85 µM). Further, in the data set with E. coli Tol C, the MIC was 0.5 µg/mL (≈ 1.33 µM). Further, the MIC with E. faecalis RB1 (Gram positive, E. faecalis RB1, read-out: Minimum Inhibitory Concentrations E. faecalis RB1) was 2 µg/mL (≈ 5.31 µM). The MIC in the data set on S. pyogenes C203 (Gram positive, S. pyogenes C203, read-out: Minimum Inhibitory Concentrations S. pyogenes C203) is 0.13 µg/mL (≈ 0.345 µM). The compound further gave an IC50 against E. coli gyrase of 7 µM.

Regarding `Cc1c(N2CC[C@@H]([C@H](C)N)C2)c(F)cc2c(=O)[nH]c(=O)n(C3CC3)c12` [Example 4b, 7-[(R)-3-((S)-1-Aminoethyl)pyrrolidin-1-yl]-1-cyclopropyl-6-fluoro-8-methyl-1H-quinazolinedione Hydrochloride], the MIC turned out to be 0.13 µg/mL with E. coli B90 (B90, read-out: Minimum Inhibitory Concentrations E. coli B90); 4 µg/mL in the data set with E. coli MC 4100 (MC4100, read-out: Minimum Inhibitory Concentrations E. coli MC 4100); 0.13 µg/mL in the data set on E. coli Tol C; 0.13 µg/mL in the data set on E. faecalis RB1 (RB1, read-out: Minimum Inhibitory Concentrations E. faecalis RB1); 0.25 µg/mL in the data set with S. aureus 29213; 0.015 µg/mL in the data set on S. pyogenes C203 (C203, read-out: Minimum Inhibitory Concentrations S. pyogenes C203). Besides, the MIC with N. gonorrhoeae 2637 worked out at 0.25 µg/mL; in the data set with N. gonorrhoeae 2709 (Neisseria gonorrhoeae, 2709, read-out: Minimum Inhibitory Concentrations N. g. 2709) it was 2 µg/mL; in the data set on S. aureus UC-76 it was 0.13 µg/mL; in the data set on S. aureus 2552 (Staphylococcus aureus, 2552, upregulated norA pump, read-out: Minimum Inhibitory Concentrations S. aureus 2552), 0.5 µg/mL. This compound gave an IC50 against E. coli gyrase of 0.6 µM. This compound also gave a PD50 in the data set on S. pyogenes of 3.6 mg/kg. Moreover, the “MIC fold increase N. g. 2709 (in parentheses)” value with N. gonorrhoeae 2709 (relative to MIC against N. g. 2637) was “(8x)”. Further, the “MIC fold increase N. g. 2693 (in parentheses)” value with N. gonorrhoeae 2693 was “(8x)”. For the same compound, in the data set on S. aureus 2552 (relative to MIC against S. aureus UC-76), the “MIC fold increase S. aureus 2552 (in parentheses)” value is “(4x)”. Besides, in the data set on S. aureus 2554, the “MIC fold increase S. aureus 2554 (in parentheses)” value is listed as “(2x)”. Besides, the “MIC fold increase S. aureus 2558 (in parentheses)” value with S. aureus 2558 is “(8x)”.
